Values of other authors, collected in patent US10952975B2, “Compositions and methods for treatment of cancer” (priority 2019, dated 2021).
Read-outs that look alike come from different tables or passages of the source. Blank lines part the entries; values can stand above or below the compound they belong to.

Assays:
[1] = clinical studies
MAT2A [2] = target: T1, MAT2A (Homo sapiens, UniProt P31153); details: in vitro
LS174T cells = details: 36 h, 10 μM FIDAS-3
MAT2A [3] = target: T1, MAT2A; details: cell-free; [L-Met]=[ATP]=1 mM, [MAT2A]=10 μg/mL; 20 min preincubation, 30 min reaction; read-out: IC50, MAT2A-catalyzed SAM synthesis
[4] = patients with advanced solid tumors

T1 sequence (P31153 whole entry): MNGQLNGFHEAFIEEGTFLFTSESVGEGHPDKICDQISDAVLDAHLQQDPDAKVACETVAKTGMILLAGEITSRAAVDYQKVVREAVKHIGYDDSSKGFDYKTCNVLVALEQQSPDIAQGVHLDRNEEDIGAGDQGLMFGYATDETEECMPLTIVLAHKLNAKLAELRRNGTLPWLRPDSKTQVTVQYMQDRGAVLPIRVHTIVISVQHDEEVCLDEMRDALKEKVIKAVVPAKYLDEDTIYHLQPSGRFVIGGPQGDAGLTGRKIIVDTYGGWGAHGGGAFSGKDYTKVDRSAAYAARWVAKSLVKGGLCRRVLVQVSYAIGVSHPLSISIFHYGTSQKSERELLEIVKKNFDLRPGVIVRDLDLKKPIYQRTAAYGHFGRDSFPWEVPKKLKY

SMILES: COc1ccc(/C=C\c2cc(OC)c(OC)c(OC)c2)cc1OP(=O)([O-])[O-].[Na+].[Na+] [CA-4P, Disodium CA-4-3-O-phosphate]
maximum tolerated dose [1]: 60-68 mg/m^2

SMILES: Cc1ccc2c(=O)c3cccc(CC(=O)O)c3oc2c1C [DMXAA, 5,6-dimethylxanthenone-4-acetic acid]
time to arrest of tumor blood flow after administration (murine tumors): ≤ 30 min

competition against SAM for MAT2A binding (MAT2A [2]): effectively competes against SAM | IC50 (MAT2A [3]): 4.9 µM
SMILES: CN(C)c1ccc(/C=C/c2c(F)cccc2F)cc1 [FIDAS-3]
decrease of SAH level (LS174T cells): 56% | decrease of SAM level (LS174T cells): 64%

SMILES: COc1cc(/C=C\c2ccc(OC)c(OP(=O)(O)O)c2OP(=O)(O)O)cc(OC)c1OC [Oxi4503, Tetrasodium Combretastatin A-1 2′,3′-O-diphosphate]
dose at which a tumor response was seen [4]: 14 mg/m^2 | doses with maximum tumor perfusion reductions [4]: ≥ 11 mg/m^2 | maximum tolerated dose ([4]; escalation to 14 mg/m^2 was possible): 8.5 mg/m^2
